{"source": "patent US10017506B2", "about": "“ATX modulating agents” (BIOGEN MA INC., priority 2012, dated 2018)"}
{"target": "T1, Human ATX protein (Homo sapiens, UniProt Q13822)", "T1 construct": "made in house", "experiment": "ATX biochemical FRET assay with FS-3 substrate", "conditions": "FRET substrate FS-3 2 μM, ATX 1.0 μg/mL, 30 minutes pre-incubation, 2 hours at room temperature; read-out: IC50", "in_short": "(§1)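 Enzyme at 1.0 μg/mL final, pre-incubated with compound (10-point, 3-fold series) for 30 min at RT in Tris pH 7.4 buffer with NaCl, KCl, CaCl2, MgCl2 and 1 mg/mL fatty-acid-free BSA. After FS-3 addition, 2 h at RT protected from light; fluorescence at 485/538 nm.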", "units": {"IC50": "µM"}}
{"smiles": "CCC(N[C@H]1CC[C@@H](C(=O)O)CC1)c1ccc2ccc(O[C@H]3CC[C@@H](CC)CC3)c(C(F)(F)F)c2c1", "note": "(stereo partly drawn) [Example 145, cis-4-((1-(7-((cis-4-ethylcyclohexyl)oxy)-8-(trifluoromethyl)naphthalen-2-yl)propyl)amino)cyclohexanecarboxylic acid]", "IC50": "≤ 0.1"}
{"smiles": "CC(N[C@H]1CC[C@H](C(=O)O)CC1)c1ccc2ccc(O[C@H]3CC[C@@H](C(F)(F)F)CC3)c(C(F)(F)F)c2c1", "note": "(stereo partly drawn) [Example 143, trans-4-((1-(8-(trifluoromethyl)-7-((cis-4-(trifluoromethyl)cyclohexyl)oxy)naphthalen-2-yl)ethyl)amino)cyclohexanecarboxylic acid]", "IC50": "≤ 0.5"}
{"smiles": "C[C@H](N[C@@H]1C[C@H](C(=O)O)C1(C)C)c1ccc2ccc(O[C@H]3CC[C@@H](C(F)(F)F)CC3)c(C(F)(F)F)c2c1", "note": "[Example 121b, (1S,3R)-2,2-dimethyl-3-(((S)-1-(8-(trifluoromethyl)-7-((cis-4-(trifluoromethyl)cyclohexyl)oxy)naphthalen-2-yl)ethyl)amino)cyclobutanecarboxylic acid]", "IC50": "≤ 0.1"}
{"smiles": "O=C(O)[C@H]1CC[C@H](NCc2ccc3ccc(O[C@H]4CC[C@@H](C(F)(F)F)CC4)c(C(F)(F)F)c3c2)CC1", "note": "[Example 125, trans-4-(((8-(trifluoromethyl)-7-((cis-4-(trifluoromethyl)cyclohexyl)oxy)naphthalen-2-yl)methyl)amino)cyclohexanecarboxylic acid]", "IC50": "≤ 0.5"}
{"smiles": "CC(N[C@H]1CC[C@@H](C(=O)O)CC1)c1ccc2ccc(O[C@H]3CC[C@@H](C(F)(F)F)CC3)c(C(F)(F)F)c2c1", "note": "(stereo partly drawn) [Example 129, cis-4-((1-(8-(trifluoromethyl)-7-((cis-4-(trifluoromethyl)cyclohexyl)oxy)naphthalen-2-yl)ethyl)amino)cyclohexanecarboxylic acid]", "IC50": "≤ 0.1"}
{"target": "T1, Human ATX protein", "experiment": "ATX biochemical FRET assay with FS-3 substrate", "conditions": "IC50, FRET substrate FS-3 2 μM, ATX 1.0 μg/mL, 30 minutes pre-incubation, 2 hours at room temperature", "in_short": "as §1", "units": {"IC50": "µM"}}
{"smiles": "C[C@@H](c1ccc2ccc(O[C@H]3CC[C@@H](C(F)(F)F)CC3)c(C(F)(F)F)c2c1)N1C2CCCC1CC(C(=O)O)C2", "note": "(stereo partly drawn) [Example 137a, 9-((S)-1-(8-(trifluoromethyl)-7-((cis-4-(trifluoromethyl)cyclohexyl)oxy)naphthalen-2-yl)ethyl)-9-azabicyclo[3.3.1]nonane-3-carboxylic acid]", "IC50": "≤ 0.1"}
{"smiles": "CC[C@H]1CC[C@@H](Oc2ccc3ccc(C(C)N4C5CCC4CC(C(=O)O)C5)cc3c2C(F)(F)F)CC1", "note": "(stereo partly drawn) [Example 55, 8-(1-(7-((cis-4-ethylcyclohexyl)oxy)-8-(trifluoromethyl)naphthalen-2-yl)ethyl)-8-azabicyclo[3.2.1]octane-3-carboxylic acid]", "IC50": "≤ 0.1"}
{"smiles": "N#Cc1c(O[C@H]2CC[C@@H](C(F)(F)F)CC2)ccc2ccc(CN3C4CCC3CC(C(=O)O)C4)cc12", "note": "(stereo partly drawn) [Example 34, 8-((8-cyano-7-((cis-4-(trifluoromethyl)cyclohexyl)oxy)naphthalen-2-yl)methyl)-8-azabicyclo[3.2.1]octane-3-carboxylic acid]", "IC50": "≤ 0.25"}
{"smiles": "CC[C@H]1CC[C@@H](Oc2ccc3ccc(C(C)N4C5CCC4CC(C(=O)O)C5)cc3c2C#N)CC1", "note": "(stereo partly drawn) [Example 73, 8-(1-(8-cyano-7-((cis-4-ethylcyclohexyl)oxy)naphthalen-2-yl)ethyl)-8-azabicyclo[3.2.1]octane-3-carboxylic acid]", "IC50": "≤ 0.1"}
{"smiles": "CC[C@H]1CC[C@@H](Oc2ccc3ccc([C@@H](C)N4C5CCCC4CC(C(=O)O)C5)cc3c2C(F)(F)F)CC1", "note": "(stereo partly drawn) [Example 133b, 9-((R)-1-(7-((cis-4-ethylcyclohexyl)oxy)-8-(trifluoromethyl)naphthalen-2-yl)ethyl)-9-azabicyclo[3.3.1]nonane-3-carboxylic acid]", "IC50": "≤ 0.25"}
{"smiles": "CCC(c1ccc2ccc(O[C@H]3CC[C@@H](C)CC3)c(C(F)(F)F)c2c1)N1C2CCCC1CC(C(=O)O)C2", "note": "(stereo partly drawn) [Example 104, 9-(1-(7-((cis-4-methylcyclohexyl)oxy)-8-(trifluoromethyl)naphthalen-2-yl)propyl)-9-azabicyclo[3.3.1]nonane-3-carboxylic acid]", "IC50": "≤ 0.25"}
